Experiments:
Format in all cases: in vivo
Male CFLP mice = experiment: Platelet aggregation inhibition activity, response to intravenous collagen; details: oral dose two hours before intravenous collagen 400 µg/kg; blood platelet concentration 30 sec after collagen; Aspirin 600(108), Example 8 2.5 (1) µmol(mg)/kg p.o.
Experimental: Male CFLP mice (ca 20 g, n=8) were dosed orally with compound or vehicle (controls) after an overnight fast. Two hours later each mouse received an intravenous dose of collagen (400 µg/kg, pH 6-6.6). Exactly 30 sec after injection of collagen, each mouse was placed in a chamber of C02 until respiration ceased. […] Each concentration was expressed as a per cent of that obtained in a tail blood sample taken immediately before injection of collagen.

Female CFLP mice [1] = experiment: Effect on energy expenditure and food intake of mice; details: 19.5-26.3 mg/kg p.o. (per compound, see Dose column); for Mean Food Intake: percentage of mean food intake of mice dosed with water, over 21 hours after a single oral dose; for Mean Energy Expenditure (0-3 h) / Mean Energy Expenditure (0-21 h): percentage of mean rate of energy expenditure of mice dosed with water, single oral dose, 12 mice; for Mean Energy Expenditure (0-3 h): 0-3 h after dosing; for Mean Energy Expenditure (0-21 h): 0-21 h after dosing
Experimental: The compounds were dissolved in water by addition of one mole of hydrochloric acid per mole of compound and these solutions were administered orally to each of 12 mice. A further 12 mice were dosed orally with water. The mice were placed in boxes through which air was drawn and the oxygen content of the air leaving the boxes was measured. The energy expenditure of the mice was calculated for 21 hours after dosing from the volume of air leaving the boxes and its oxygen content, following the principles described by J.B. de V. Weir, J. Ph^ysiol. (London) 109, 1-9, (1949). The food intake of the mice was measured over this same period of 21 hours. The results are expressed as a percentage of the mean food intake or rate of energy expenditure of the mice dosed with water.

Female CFLP mice [2] = experiment: Hypoglycaemic activity, subcutaneous glucose load in fasted mice; details: oral dose 1.0-12.5 μmol/kg (per compound, see Dose column), 30 minutes before glucose 1 g/kg subcutaneously; area over 2 hours compared with control mice given water; mice fasted 24 hours
Experimental: Female CFLP mice, weighing approximately 25 g, were fasted for 24 hours prior to the study. The compounds under study were administered orally as an aqueous solution to each of 8 mice. 30 minutes later a blood sample (20 µℓ) was obtained from the tail for the analysis of blood glucose. Immediately after taking this blood sample, glucose (1 g/kg body weight) was administered subcutaneously to each mouse. 8 mice were given water as a control. Blood samples were then obtained from each mouse at 30-minute intervals for 120 minutes.
Compounds that produced a significant (P<0.05) reduction of blood glucose, compared with control mice given water, at any time interval , were considered active. The area under the blood glucose curve over the 2 hour period after the administration of the glucose was calculated for each compound and compared with the value for control animals.

CC(=O)Oc1ccccc1C(=O)O [Aspirin, reference compound]
% Inhibition of response to collagen (Male CFLP mice): 38 p<0.05%

CC(Cc1ccc(NS(C)(=O)=O)cc1)NCC(O)c1ccccc1 (centres unmarked) [Example 1, N-(2-(4-Methylsulphonylaminophenyl)-1-methylethyl]-2-hydroxy-2-phenylethanamine]
Mean Food Intake (Female CFLP mice [1]): 80 percentage
Mean Energy Expenditure (0-3 h) (Female CFLP mice [1]): 130 percentage
Mean Energy Expenditure (0-21 h) (Female CFLP mice [1]): 95 percentage
% Reduction in area under Blood glucose curve (Female CFLP mice [2]): 24.7%

CC(Cc1ccc(NS(C)(=O)=O)cc1)NCC(O)c1cccc(C(F)(F)F)c1 (centres unmarked) [Example 2, N-[2-(4-Methylsulphonylaminophenyl)-1-methylethyl]-2-hydroxy-2-(3-trifluoromethylphenyl)ethanamine]
Mean Food Intake (Female CFLP mice [1]): 99 percentage
Mean Energy Expenditure (0-3 h) (Female CFLP mice [1]): 142 percentage
Mean Energy Expenditure (0-21 h) (Female CFLP mice [1]): 102 percentage

CCOC(=O)Nc1ccc(CC(C)NCC(O)c2cccc(C(F)(F)F)c2)cc1 (centres unmarked) [Example 3, N-[2-(4-Ethoxycarbonylaminophenyl)-1-methylethyl]-2-hydroxy-2-(3-trifluoromethylphenyl)ethanamine]
Mean Food Intake (Female CFLP mice [1]): 76 percentage
Mean Energy Expenditure (0-3 h) (Female CFLP mice [1]): 139 percentage
Mean Energy Expenditure (0-21 h) (Female CFLP mice [1]): 121 percentage

CC(=O)Nc1ccc(CC(C)NCC(O)c2cccc(C(F)(F)F)c2)cc1 (centres unmarked) [Example 4, N-(2-(4-Acetylaminophenyl)-1-methylethyl)-2-hydroxy-2-(3-trifluoromethylphenyl)ethanamine]
Mean Food Intake (Female CFLP mice [1]): 72 percentage
Mean Energy Expenditure (0-3 h) (Female CFLP mice [1]): 151 percentage
Mean Energy Expenditure (0-21 h) (Female CFLP mice [1]): 115 percentage
% Reduction in area under Blood glucose curve (Female CFLP mice [2]): 15.9%

CNC(=O)Nc1ccc(CC(C)NCC(O)c2cccc(C(F)(F)F)c2)cc1 (centres unmarked) [Example 5, N-[2-(4-Methylaminocarbonylaminophenyl)-1-methylethyl]-2-hydroy-2-(3-trifluoromethylphenyl)ethanamine]
Mean Food Intake (Female CFLP mice [1]): 72 percentage
Mean Energy Expenditure (0-3 h) (Female CFLP mice [1]): 159 percentage
Mean Energy Expenditure (0-21 h) (Female CFLP mice [1]): 121 percentage

CCNc1ccc(CC(C)NCC(O)c2cccc(C(F)(F)F)c2)cc1 (centres unmarked) [Example 6, N-[2-(4-Ethylaminophenyl)-1-methylethyl]-2-hydroxy-2-(3-trifluoromethvlphenvl)ethanamine]
Mean Food Intake (Female CFLP mice [1]): 108 percentage
Mean Energy Expenditure (0-3 h) (Female CFLP mice [1]): 169 percentage
Mean Energy Expenditure (0-21 h) (Female CFLP mice [1]): 128 percentage

CC(Cc1ccc(N)cc1)NCC(O)c1cccc(C(F)(F)F)c1 (centres unmarked) [Example 7, N-[2-(4-Aminophenyl)-1-methylethyl]-2-hydroxy-2-(3-trifluoromethylphenyl) ethanamine]
Mean Food Intake (Female CFLP mice [1]): 84 percentage
Mean Energy Expenditure (0-3 h) (Female CFLP mice [1]): 182 percentage
Mean Energy Expenditure (0-21 h) (Female CFLP mice [1]): 118 percentage
% Reduction in area under Blood glucose curve (Female CFLP mice [2]): 38.0%

COC(=O)CNc1ccc(CC(C)NCC(O)c2cccc(C(F)(F)F)c2)cc1 (centres unmarked) [Example 8, N-[2-(4-Methoxycarbonylmethylaminophenyl)-1-methylethyl] -2-hydroxy-2-(3-trifluoromethylphenyl) ethanamine]
Mean Energy Expenditure (0-3 h) (Female CFLP mice [1]): 140 percentage
% Reduction in area under Blood glucose curve (Female CFLP mice [2]): 36.2%
% Inhibition of response to collagen (Male CFLP mice): 42 p<0.02%

CC(Cc1ccc([N+](=O)[O-])cc1)NCC(O)c1cccc(C(F)(F)F)c1 (centres unmarked) [Example 9, N-[2-(4-Nitrophenyl)-1-methylethyl]-2-hydroxy-2-(3-trifluoromethylphenyl) ethanamine]
Mean Food Intake (Female CFLP mice [1]): 94 percentage
Mean Energy Expenditure (0-3 h) (Female CFLP mice [1]): 112 percentage
Mean Energy Expenditure (0-21 h) (Female CFLP mice [1]): 115 percentage
% Reduction in area under Blood glucose curve (Female CFLP mice [2]): 13.2%

CC(Cc1ccc(N(C)C)cc1)NCC(O)c1cccc(C(F)(F)F)c1 (centres unmarked) [Example 10, N-[2-(4-Dimethylaminophenyl]-1-methylethyl]-2-hydroxy-2-(3-trifluoromethylphenvl)ethanamine]
Mean Food Intake (Female CFLP mice [1]): 70 percentage
Mean Energy Expenditure (0-3 h) (Female CFLP mice [1]): 169 percentage
Mean Energy Expenditure (0-21 h) (Female CFLP mice [1]): 125 percentage

CC(Cc1ccc(N2CCCC2)cc1)NCC(O)c1cccc(C(F)(F)F)c1 (centres unmarked) [Example 11, N-[2-(4-(1-Pyrrolidyl)phenyl)-1-methylethyl] -2-hydroxy-2-(3-trifluoromethylphenyl)ethanamine]
Mean Food Intake (Female CFLP mice [1]): 95 percentage
Mean Energy Expenditure (0-3 h) (Female CFLP mice [1]): 151 percentage
Mean Energy Expenditure (0-21 h) (Female CFLP mice [1]): 112 percentage

CC(Cc1ccc(N2CCOCC2)cc1)NCC(O)c1cccc(C(F)(F)F)c1 (centres unmarked) [Example 12, N-[2-(4-(4-Morpholino)phenyl)-1-methylethyl]-2-hydroxy-2-(3-trifluoromethylphenyl)ethanamine]
Mean Food Intake (Female CFLP mice [1]): 72 percentage
Mean Energy Expenditure (0-3 h) (Female CFLP mice [1]): 143 percentage
Mean Energy Expenditure (0-21 h) (Female CFLP mice [1]): 121 percentage

CCOC(=O)C1CCN(c2ccc(CC(C)NCC(O)c3cccc(C(F)(F)F)c3)cc2)CC1 (centres unmarked) [Example 13, N-[2-(4-(1-(4-Carboethoxy)piperidyl)phenyl)-1-methylethyl]-2-hydroxy-2-(3-trifluoromethylphenyl)ethanamine]
Mean Food Intake (Female CFLP mice [1]): 95 percentage
Mean Energy Expenditure (0-3 h) (Female CFLP mice [1]): 121 percentage
Mean Energy Expenditure (0-21 h) (Female CFLP mice [1]): 103 percentage

CNC(=O)C1CCN(c2ccc(CC(C)NCC(O)c3cccc(C(F)(F)F)c3)cc2)CC1 (centres unmarked) [Example 14, N-[2-(4-(1-(4-N'-Methylcarboxamido)piperidyl)phenyl)-1-methylethyl]-2-hydroxy-2-(3-trifluoromethylphenyl)ethanamine]
Mean Food Intake (Female CFLP mice [1]): 106 percentage
Mean Energy Expenditure (0-3 h) (Female CFLP mice [1]): 118 percentage
Mean Energy Expenditure (0-21 h) (Female CFLP mice [1]): 102 percentage

Source: patent EP0068669A1, “Secondary phenylethanol amines, processes for their preparation and their pharmaceutical application” (priority 1981, dated 1983)
